Measurements taken from article PMC5218480 (PLoS ONE, 2017).

Tested on: MV-4-11 cells
Assay: Gene expression microarray analysis (Affymetrix PrimeView) and GSEA
Format: cell-based, human
Set-up: RFU PODN (11730768_x_at) / Fold change /veh PODN (11730768_x_at) / RFU LINC00158 (11744669_a_at) / Fold change /veh LINC00158 (11744669_a_at) / RFU DUSP10 (11751237_a_at) / Fold change /veh DUSP10 (11751237_a_at) / RFU ID3 (11757404_x_at) / Fold change /veh ID3 (11757404_x_at) / RFU PLEKHG5 (11737974_s_at) / Fold change /veh PLEKHG5 (11737974_s_at) / RFU LRRC4B (11730491_at) / Fold change /veh LRRC4B (11730491_at) / RFU GIMAP4 (11747438_a_at) / Fold change /veh GIMAP4 (11747438_a_at) / RFU KRT8 (11758183_x_at) / Fold change /veh KRT8 (11758183_x_at) / RFU CNN1 (11734310_a_at) / Fold change /veh CNN1 (11734310_a_at) / RFU VPS37D (11726825_at) / Fold change /veh VPS37D (11726825_at) / RFU C10orf10 (11716522_x_at) / Fold change /veh C10orf10 (11716522_x_at) / RFU KIR2DL2 /// KIR2DL4 /// KIR2DL5A /// KIR2DL5B /// KIR2DS1 /// KIR2DS2 /// KIR2DS3 /// KIR2DS4 /// KIR3DL3 /// KIR3DL3 /// KIR3DS1 (11738374_at) / Fold change /veh KIR2DL2 /// KIR2DL4 /// KIR2DL5A /// KIR2DL5B /// KIR2DS1 /// KIR2DS2 /// KIR2DS3 /// KIR2DS4 /// KIR3DL3 /// KIR3DL3 /// KIR3DS1 (11738374_at) / RFU C1QL1 (11718748_at) / Fold change /veh C1QL1 (11718748_at) / RFU TMPRSS4 (11747572_a_at) / Fold change /veh TMPRSS4 (11747572_a_at) / RFU HAMP (11756126_x_at) / Fold change /veh HAMP (11756126_x_at) / RFU RNFT2 (11725882_a_at) / Fold change /veh RNFT2 (11725882_a_at) / RFU NR4A2 (11747474_a_at) / Fold change /veh NR4A2 (11747474_a_at) / RFU ABCC12 (11746883_a_at) / Fold change /veh ABCC12 (11746883_a_at) / RFU TMEM136 (11760407_x_at) / Fold change /veh TMEM136 (11760407_x_at) / RFU CLDN22 /// WWC2 (11732394_at) / Fold change /veh CLDN22 /// WWC2 (11732394_at) / RFU HLA-DPB1 (11760878_x_at) / Fold change /veh HLA-DPB1 (11760878_x_at) / RFU SPINT1 (11716480_a_at) / Fold change /veh SPINT1 (11716480_a_at) / RFU GAP43 (11754022_s_at) / Fold change /veh GAP43 (11754022_s_at) / RFU A4GNT (11735810_at) / Fold change /veh A4GNT (11735810_at) / RFU PRB3 (11715151_x_at) / Fold change /veh PRB3 (11715151_x_at) / RFU TUBB4B (11761932_at) / Fold change /veh TUBB4B (11761932_at) / RFU CAPN14 (11732068_a_at) / Fold change /veh CAPN14 (11732068_a_at) / RFU TMCC2 (11721928_a_at) / Fold change /veh TMCC2 (11721928_a_at) / RFU IRGQ (11745062_a_at) / Fold change /veh IRGQ (11745062_a_at) / RFU FAM174B (11720279_a_at) / Fold change /veh FAM174B (11720279_a_at) / RFU TMPRSS4 (11748680_a_at) / Fold change /veh TMPRSS4 (11748680_a_at) / RFU FAM212B (11763350_a_at) / Fold change /veh FAM212B (11763350_a_at) / RFU PLEKHG5 (11743358_a_at) / Fold change /veh PLEKHG5 (11743358_a_at) / RFU ZSCAN30 (11745921_a_at) / Fold change /veh ZSCAN30 (11745921_a_at) / RFU CMKLR1 (11741424_a_at) / Fold change /veh CMKLR1 (11741424_a_at) / RFU LOC101060620 /// MAPK8IP1 (11723275_at) / Fold change /veh LOC101060620 /// MAPK8IP1 (11723275_at) / RFU SPTSSB (11747773_x_at) / Fold change /veh SPTSSB (11747773_x_at) / RFU PRSS12 (11739890_at) / Fold change /veh PRSS12 (11739890_at) / RFU BIN1 (11741810_x_at) / Fold change /veh BIN1 (11741810_x_at) / RFU WNT11 (11732464_a_at) / Fold change /veh WNT11 (11732464_a_at) / RFU C10orf10 (11716521_a_at) / Fold change /veh C10orf10 (11716521_a_at) / RFU C5orf56 (11738089_at) / Fold change /veh C5orf56 (11738089_at) / RFU CYB561 (11721691_x_at) / Fold change /veh CYB561 (11721691_x_at) / RFU ANKRD19P (11752326_a_at) / Fold change /veh ANKRD19P (11752326_a_at) / RFU OR2T12 /// OR2T33 /// OR2T8 (11738714_s_at) / Fold change /veh OR2T12 /// OR2T33 /// OR2T8 (11738714_s_at) / RFU VCAN (11748164_a_at) / Fold change /veh VCAN (11748164_a_at) / RFU JSRP1 (11732532_at) / Fold change /veh JSRP1 (11732532_at) / RFU KRTAP10-11 (11738290_x_at) / Fold change /veh KRTAP10-11 (11738290_x_at) / RFU MYO3A (11730013_a_at) / Fold change /veh MYO3A (11730013_a_at) / RFU EBF3 (11725865_a_at) / Fold change /veh EBF3 (11725865_a_at) / RFU CAMK2N1 (11719241_x_at) / Fold change /veh CAMK2N1 (11719241_x_at) / RFU C5orf56 (11738088_a_at) / Fold change /veh C5orf56 (11738088_a_at) / RFU OLFML3 (11715873_a_at) / Fold change /veh OLFML3 (11715873_a_at) / RFU LOC100653217 /// NTM (11731650_a_at) / Fold change /veh LOC100653217 /// NTM (11731650_a_at) / RFU MAPK11 (11762145_a_at) / Fold change /veh MAPK11 (11762145_a_at) / RFU FIZ1 (11724087_x_at) / Fold change /veh FIZ1 (11724087_x_at) / RFU OASL (11726364_x_at) / Fold change /veh OASL (11726364_x_at) / RFU SOX15 (11748057_x_at) / Fold change /veh SOX15 (11748057_x_at) / RFU CD79A (11719716_a_at) / Fold change /veh CD79A (11719716_a_at) / RFU HIST1H1D (11736915_at) / Fold change /veh HIST1H1D (11736915_at) / RFU CASKIN2 (11723855_a_at) / Fold change /veh CASKIN2 (11723855_a_at) / RFU LOC730098 (11760151_x_at) / Fold change /veh LOC730098 (11760151_x_at) / RFU OR4N2 (11742367_at) / Fold change /veh OR4N2 (11742367_at) / RFU PRRT2 (11749266_a_at) / Fold change /veh PRRT2 (11749266_a_at) / RFU SNX32 (11753110_a_at) / Fold change /veh SNX32 (11753110_a_at) / RFU CDHR5 (11726645_a_at) / Fold change /veh CDHR5 (11726645_a_at) / RFU RCAN1 (11760418_a_at) / Fold change /veh RCAN1 (11760418_a_at) / RFU FAM167A (11723789_a_at) / Fold change /veh FAM167A (11723789_a_at) / RFU FAM26E (11764081_at) / Fold change /veh FAM26E (11764081_at) / RFU ISYNA1 (11749810_s_at) / Fold change /veh ISYNA1 (11749810_s_at) / RFU ACY1 (11761880_at) / Fold change /veh ACY1 (11761880_at) / RFU 11764098_at / Fold change /veh 11764098_at / RFU SAMD14 (11745864_x_at) / Fold change /veh SAMD14 (11745864_x_at) / RFU NPB (11741838_a_at) / Fold change /veh NPB (11741838_a_at) / RFU TMPRSS6 (11731388_a_at) / Fold change /veh TMPRSS6 (11731388_a_at) / RFU KRTAP10-2 (11738614_at) / Fold change /veh KRTAP10-2 (11738614_at) / RFU ARHGAP8 /// PRR5-ARHGAP8 (11727945_x_at) / Fold change /veh ARHGAP8 /// PRR5-ARHGAP8 (11727945_x_at) / RFU KRTAP5-7 /// NADSYN1 (11734609_at) / Fold change /veh KRTAP5-7 /// NADSYN1 (11734609_at) / RFU RASL12 (11751679_a_at) / Fold change /veh RASL12 (11751679_a_at) / RFU CDKN2B (11736163_a_at) / Fold change /veh CDKN2B (11736163_a_at) / RFU PRF1 (11729649_at) / Fold change /veh PRF1 (11729649_at) / RFU, ZNF638 /// ZNF638-IT1 / Fold change vs veh, ZNF638 /// ZNF638-IT1 / RFU, PANK3 / Fold change vs veh, PANK3 / RFU, SH3YL1 / Fold change vs veh, SH3YL1 / RFU, ZEB2 / Fold change vs veh, ZEB2 / RFU, NRIP1 / Fold change vs veh, NRIP1 / RFU, PTTG1IP / Fold change vs veh, PTTG1IP / RFU, CAPN2 / Fold change vs veh, CAPN2 / RFU, MED14 / Fold change vs veh, MED14 / RFU, SNORA58 / Fold change vs veh, SNORA58 / RFU, C1orf63 / Fold change vs veh, C1orf63 / RFU, LRRFIP1 / Fold change vs veh, LRRFIP1 / RFU, NDUFAF7 / Fold change vs veh, NDUFAF7 / RFU, SLC12A2 / Fold change vs veh, SLC12A2 / RFU, IBTK / Fold change vs veh, IBTK / RFU, ESF1 / Fold change vs veh, ESF1 / Fold change vs veh, TMEM50B / RFU, TAOK1 / Fold change vs veh, TAOK1 / RFU, ACBD3 / Fold change vs veh, ACBD3 / RFU, TMA16 / Fold change vs veh, TMA16 / RFU, RWDD3 / Fold change vs veh, RWDD3 / RFU, BCAT1 / Fold change vs veh, BCAT1 / RFU, EDEM3 / Fold change vs veh, EDEM3 / RFU, TMEM33 / Fold change vs veh, TMEM33 / RFU, WDR75 / Fold change vs veh, WDR75 / RFU, AHCTF1 / Fold change vs veh, AHCTF1 / RFU, TFRC / Fold change vs veh, TFRC / RFU, ZDHHC17 / Fold change vs veh, ZDHHC17 / RFU, NOM1 / Fold change vs veh, NOM1 / RFU, ARL8B / Fold change vs veh, ARL8B / RFU, ZBTB11 / Fold change vs veh, ZBTB11 / RFU, TAMM41 / Fold change vs veh, TAMM41 / RFU, KIAA1704 /// LOC100996395 / Fold change vs veh, KIAA1704 /// LOC100996395 / RFU, ING1 / Fold change vs veh, ING1 / RFU, TRMT61B / Fold change vs veh, TRMT61B / RFU, FUBP3 / Fold change vs veh, FUBP3 / RFU, TP53 / Fold change vs veh, TP53 / RFU, TNKS2 / Fold change vs veh, TNKS2 / RFU, ZFP14 / Fold change vs veh, ZFP14 / RFU, ACTR2 / Fold change vs veh, ACTR2 / RFU, PPP3R1 / Fold change vs veh, PPP3R1 / RFU, PIK3R1 / Fold change vs veh, PIK3R1 / RFU, HNRNPA1 / Fold change vs veh, HNRNPA1 / RFU, RNF170 / Fold change vs veh, RNF170 / RFU, ZNF28 / Fold change vs veh, ZNF28 / RFU, RNGTT / Fold change vs veh, RNGTT / RFU, OGT / Fold change vs veh, OGT / RFU, BRD1 / Fold change vs veh, BRD1 / RFU, MARS / Fold change vs veh, MARS / RFU, ZNF655 / Fold change vs veh, ZNF655 / RFU, FAHD1 / Fold change vs veh, FAHD1 / RFU, BDP1 / Fold change vs veh, BDP1 / RFU, LRRCC1 / Fold change vs veh, LRRCC1 / RFU, ARID1A / Fold change vs veh, ARID1A / RFU, ZNF146 / Fold change vs veh, ZNF146 / RFU, ZNF330 / Fold change vs veh, ZNF330 / RFU, GPN3 / Fold change vs veh, GPN3 / RFU, C9orf123 / Fold change vs veh, C9orf123 / RFU, N4BP2L2 / Fold change vs veh, N4BP2L2 / RFU, ARFIP1 / Fold change vs veh, ARFIP1 / RFU, FAM179B / Fold change vs veh, FAM179B / RFU, BCL10 / Fold change vs veh, BCL10 / RFU, UHRF1BP1L / Fold change vs veh, UHRF1BP1L / RFU, BET1 / Fold change vs veh, BET1 / RFU, CNOT2 / Fold change vs veh, CNOT2 / RFU, ZNF268 / Fold change vs veh, ZNF268 / Fold change vs veh, ZNF507 / RFU, DGCR2 / Fold change vs veh, DGCR2 / RFU, WDSUB1 / Fold change vs veh, WDSUB1 / Fold change vs veh, HSP90B1 /// MIR3652 / RFU, ADSS / Fold change vs veh, ADSS / RFU, GK / Fold change vs veh, GK / RFU, ZNF148 / Fold change vs veh, ZNF148 / RFU, TAF9 / Fold change vs veh, TAF9 / RFU, SLC1A5 / Fold change vs veh, SLC1A5 / RFU, SLMO2 / Fold change vs veh, SLMO2 / RFU, ABCC4 / Fold change vs veh, ABCC4 / RFU, LOC101060439 /// RAP1B / Fold change vs veh, LOC101060439 /// RAP1B / RFU, RFX7 / Fold change vs veh, RFX7 / RFU, GTPBP10 / Fold change vs veh, GTPBP10 / RFU, CNEP1R1 / Fold change vs veh, CNEP1R1 / RFU, BIVM-ERCC5 /// ERCC5 / Fold change vs veh, BIVM-ERCC5 /// ERCC5 / RFU, ILF3 / Fold change vs veh, ILF3 / RFU 11762660_at / Fold change /veh 11762660_at / RFU VCAN (11757783_s_at) / Fold change /veh VCAN (11757783_s_at) / RFU DDX43 (11728927_at) / Fold change /veh DDX43 (11728927_at) / RFU KRT8 (11758188_x_at) / Fold change /veh KRT8 (11758188_x_at) / RFU NKD1 (11759106_at) / Fold change /veh NKD1 (11759106_at) / RFU SRD5A1 (11742802_a_at) / Fold change /veh SRD5A1 (11742802_a_at) / RFU TPSAB1 /// TPSB2 (11721975_s_at) / Fold change /veh TPSAB1 /// TPSB2 (11721975_s_at) / RFU GSTM3 (11746129_a_at) / Fold change /veh GSTM3 (11746129_a_at) / RFU IL23R (11737362_x_at) / Fold change /veh IL23R (11737362_x_at) / RFU TMEM51 (11727254_a_at) / Fold change /veh TMEM51 (11727254_a_at) / RFU PIWIL2 (11732686_x_at) / Fold change /veh PIWIL2 (11732686_x_at) / RFU ORM1 (11744905_x_at) / Fold change /veh ORM1 (11744905_x_at) / RFU CCDC152 (11743942_at) / Fold change /veh CCDC152 (11743942_at) / RFU ECM1 (11717891_a_at) / Fold change /veh ECM1 (11717891_a_at) / RFU IL23R (11748794_a_at) / Fold change /veh IL23R (11748794_a_at) / RFU TNFAIP8L3 (11732012_x_at) / Fold change /veh TNFAIP8L3 (11732012_x_at) / RFU MBOAT4 (11741988_at) / Fold change /veh MBOAT4 (11741988_at) / RFU 11764193_at / Fold change /veh 11764193_at / RFU TMEM53 (11763286_at) / Fold change /veh TMEM53 (11763286_at) / RFU MAGEB2 (11727129_at) / Fold change /veh MAGEB2 (11727129_at) / RFU TMEM200A (11744735_a_at) / Fold change /veh TMEM200A (11744735_a_at) / RFU CCDC152 (11751479_a_at) / Fold change /veh CCDC152 (11751479_a_at) / RFU FAM211A (11726209_a_at) / Fold change /veh FAM211A (11726209_a_at) / RFU RGS16 (11746705_a_at) / Fold change /veh RGS16 (11746705_a_at) / RFU VCAN (11755009_s_at) / Fold change /veh VCAN (11755009_s_at) / RFU RHOB (11743442_s_at) / Fold change /veh RHOB (11743442_s_at) / RFU RGS16 (11720943_a_at) / Fold change /veh RGS16 (11720943_a_at) / RFU RGS16 (11720944_at) / Fold change /veh RGS16 (11720944_at) / RFU, VPS4B / Fold change vs veh, VPS4B / RFU, CREB1 / Fold change vs veh, CREB1 / RFU, DNAJC13 / Fold change vs veh, DNAJC13 / RFU, GNAQ / Fold change vs veh, GNAQ / RFU, CDK5R1 / Fold change vs veh, CDK5R1 / RFU, ZRANB3 / Fold change vs veh, ZRANB3 / RFU, CUL4A / Fold change vs veh, CUL4A / RFU, CCNY / Fold change vs veh, CCNY / RFU, UFL1 / Fold change vs veh, UFL1 / RFU, COG3 / Fold change vs veh, COG3 / RFU, DIAPH2 / Fold change vs veh, DIAPH2 / RFU, SKA2 / Fold change vs veh, SKA2 / RFU, AFF3 / Fold change vs veh, AFF3 / RFU, LMF1 / Fold change vs veh, LMF1 / RFU, IPO11 / Fold change vs veh, IPO11 / RFU, DFFB / Fold change vs veh, DFFB / RFU, FOXP1 / Fold change vs veh, FOXP1 / RFU, CARD8 / Fold change vs veh, CARD8 / RFU, STRN3 / Fold change vs veh, STRN3 / RFU, ADK / Fold change vs veh, ADK / RFU, RASSF2 / Fold change vs veh, RASSF2 / RFU, WIPF1 / Fold change vs veh, WIPF1 / RFU, LARP1B / Fold change vs veh, LARP1B / RFU, RASA1 / Fold change vs veh, RASA1 / RFU, RB1 / Fold change vs veh, RB1 / RFU, PPFIA1 / Fold change vs veh, PPFIA1 / RFU, MAT2A / Fold change vs veh, MAT2A / RFU, CCT5 / Fold change vs veh, CCT5 / RFU, WDR92 / Fold change vs veh, WDR92 / RFU, CUX1 / Fold change vs veh, CUX1 / RFU, TTC7A / Fold change vs veh, TTC7A / RFU, TMEM135 / Fold change vs veh, TMEM135 / RFU, DEPTOR / Fold change vs veh, DEPTOR / RFU, CPM / Fold change vs veh, CPM / RFU, DNAJB6 / Fold change vs veh, DNAJB6 / RFU, CACNA2D3 / Fold change vs veh, CACNA2D3 / RFU, DTX4 / Fold change vs veh, DTX4 / RFU, TFCP2 / Fold change vs veh, TFCP2 / RFU, GMCL1 /// GMCL1P1 / Fold change vs veh, GMCL1 /// GMCL1P1 / RFU, AEBP2 / Fold change vs veh, AEBP2 / RFU, SNHG1 /// SNORD22 /// SNORD25 /// SNORD26 /// SNORD27 /// SNORD28 /// SNORD29 /// SNORD31 / Fold change vs veh, SNHG1 /// SNORD22 /// SNORD25 /// SNORD26 /// SNORD27 /// SNORD28 /// SNORD29 /// SNORD31 / Fold change (Aza/veh), C12orf56 (ProbeSet 11735607_a_at) / Fold change (ACY-1035/veh), C12orf56 (ProbeSet 11735607_a_at) / Fold change (Aza/veh), FGFR1OP (ProbeSet 11751329_s_at) / Fold change (ACY-1035/veh), FGFR1OP (ProbeSet 11751329_s_at) / Fold change (Aza/veh), VPS36 (ProbeSet 11739960_a_at) / Fold change (ACY-1035/veh), VPS36 (ProbeSet 11739960_a_at) / RFU SYPL1 (11715823_x_at) / Fold change /veh SYPL1 (11715823_x_at) / RFU IGFBP7 (11715501_s_at) / Fold change /veh IGFBP7 (11715501_s_at) / RFU REEP3 (11722064_at) / Fold change /veh REEP3 (11722064_at) / RFU IGLL1 (11728026_x_at) / Fold change /veh IGLL1 (11728026_x_at): dose or concentration left out as unconfirmed
Conditions: ProbeSet 11743929_at; LIST B

Nc1ccc(-c2cccs2)cc1NC(=O)c1ccc2c(c1)cc(C1CC1)n2CCN1CCOCC1 [ACY-1035]
Fold change vs veh, UHRF1BP1L: 0.90
